Consider 23 compounds from patent US8791141B2, “Organic compounds” (Novartis AG, priority 2008, dated 2014).

As usually defined, the IC50 is the concentration that gives 50% inhibition.

Test [1] concerns the target T1, CYP11B2 (aldosterone synthase) (Homo sapiens, UniProt P19099).
T1 construct: the NCI-H295R cells have CYP11B2 (aldosterone synthase) and CYP11B1 (steroid 11-hydroxylase); host or cells: NCI-H295R
T1 sequence (P19099 25-503): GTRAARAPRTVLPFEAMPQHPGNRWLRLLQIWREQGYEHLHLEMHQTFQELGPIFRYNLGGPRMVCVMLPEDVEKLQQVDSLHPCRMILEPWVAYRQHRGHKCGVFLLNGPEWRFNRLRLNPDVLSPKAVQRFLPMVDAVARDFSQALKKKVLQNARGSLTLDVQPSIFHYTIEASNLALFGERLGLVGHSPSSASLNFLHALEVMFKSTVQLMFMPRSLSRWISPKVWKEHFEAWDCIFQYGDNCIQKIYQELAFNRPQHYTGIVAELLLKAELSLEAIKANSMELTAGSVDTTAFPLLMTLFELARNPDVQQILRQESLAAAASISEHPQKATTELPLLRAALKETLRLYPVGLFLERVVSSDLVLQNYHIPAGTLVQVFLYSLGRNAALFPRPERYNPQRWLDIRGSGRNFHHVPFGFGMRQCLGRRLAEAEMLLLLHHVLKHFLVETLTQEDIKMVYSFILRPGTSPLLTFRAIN
As to the kind of experiment: Inhibition of aldosterone secretion in NCI-H295R cells. Format: cell-based. To be noted: human adrenocortical carcinoma NCI-H295R cells, 24 hours with cell stimulant. The source says: (§1) The activities of a compound according to the present invention can be assessed by the following in vitro method well-described in the art.
(§2) In particular, the inhibition of aldosterone and cortisol secretion in vitro can be determined by the following assay.
(§3) The cell line NCI-H295R was originally isolated from an adrenocortical carcinoma and has been characterized in the literature through the stimulable secretion of steroid hormones and the presence of the enzymes essential for steroidogenesis. The cells show the physiological property of zonally undifferentiated human foetal adrenocortical cells which, however, have the capacity to produce the steroid hormones which are formed in the three phenotypically distinguishable zones in the adult adrenal cortex. Thus, the NCI-H295R cells have CYP11B2 (aldosterone synthase) and CYP11B1 (steroid 11-hydroxylase).
(§4) The human adrenocortical carcinoma NCI-H295R cell line is obtained from American Type Culture Collection (Manassas, Va.). Insulin/transferrin/selenium (ITS)-A supplement (100×), DMEM/F-12, antibiotic/antimycotic (100×), and fetal calf serum (FCS) are purchased from Invitrogen (Carlsbad, Calif.). Anti-mouse PVT scintillation proximity assay (SPA) beads and NBS 96-well plates are obtained from Amersham (Piscataway, N.J.) and Corning (Acton, Mass.), respectively. Clear bottom 96-well flat bottom plates are purchased from Costar (Corning, N.Y.). Aldosterone and angiotensin (Ang II) are purchased from Sigma (St. Louis, Mo.). D[1,2,6,7-3H(N)]aldosterone and [1,2,6,7-3H(N)]cortisol are acquired from PerkinElmer (Boston, Mass.). Nu-serum is a product of BD Biosciences (Franklin Lakes, N.J.).
(§5) For in vitro measurement of aldosterone and cortisol activity, human adrenocortical carcinoma NCI-H295R cells are seeded in NBS 96-well plates at a density of 25,000 cells/well in 100 μL of a growth medium containing DMEM/F12 supplemented with 10% FCS, 2.5% Nu-serum, 1 μg ITS/ml, and 1× antibiotic/antimycotic. The medium is changed after culturing for 3 days at 37° C. under an atmosphere of 5% CO2/95% air. On the following day, cells are rinsed with 100 μL of DMEM/F12 and incubated in quadruplicate wells at 37° C. for 24 hours with 100 μL of treatment medium containing a cell stimulant and a compound at different concentrations. […] Cell stimulants which can be used are angiotensin-II (1 micromolar), potassium ions (16 millimolar), forskolin (10 micromolar) or a combination of two stimulants. At the end of incubation, the excretion of aldosterone and cortisol into the culture medium can be detected and quantified by commercially available, specific monoclonal antibodies in radioimmunoassays in accordance with the manufacturer's instructions.
(§6) Measurement of aldosterone can also be performed using a 96-well plate format. Each test sample is incubated with 0.02 μCi of D[1,2,6,7-3H(N)]aldosterone and 0.3 μg of anti-aldosterone antibody in phosphate-buffered saline (PBS) containing 0.1% Triton X-100, 0.1% bovine serum albumin, and 12% glycerol in a total volume of 200 μL at room temperature for 1 hour. Anti-mouse PVT SPA beads (50 μL) are then added to each well and incubated overnight at room temperature prior to counting in a Microbeta plate counter. The amount of aldosterone in each sample is calculated by comparing with a standard curve generated using known quantities of the hormone. Measurement of cortisol can be performed in a manner similar to that of aldosterone, except that [1,2,6,7-3H(N)]cortisol is used.
(§7) Inhibition of the release of a steroid can be used as a measure of the respective enzyme inhibition by the added test compounds. The dose-dependent inhibition of enzymatic activity by a compound is calculated by means of an inhibition plot which is characterized by an IC50. […] The inhibition plot is calculated by fitting a 4-parameter logistic function to the raw data points using the least squares method.

For test [2], the target named is T2, CYP11B1 (steroid 11-hydroxylase) (Homo sapiens, UniProt P15538).
T2 construct: the NCI-H295R cells have CYP11B2 (aldosterone synthase) and CYP11B1 (steroid 11-hydroxylase); host or cells: NCI-H295R
T2 sequence (P15538 25-503): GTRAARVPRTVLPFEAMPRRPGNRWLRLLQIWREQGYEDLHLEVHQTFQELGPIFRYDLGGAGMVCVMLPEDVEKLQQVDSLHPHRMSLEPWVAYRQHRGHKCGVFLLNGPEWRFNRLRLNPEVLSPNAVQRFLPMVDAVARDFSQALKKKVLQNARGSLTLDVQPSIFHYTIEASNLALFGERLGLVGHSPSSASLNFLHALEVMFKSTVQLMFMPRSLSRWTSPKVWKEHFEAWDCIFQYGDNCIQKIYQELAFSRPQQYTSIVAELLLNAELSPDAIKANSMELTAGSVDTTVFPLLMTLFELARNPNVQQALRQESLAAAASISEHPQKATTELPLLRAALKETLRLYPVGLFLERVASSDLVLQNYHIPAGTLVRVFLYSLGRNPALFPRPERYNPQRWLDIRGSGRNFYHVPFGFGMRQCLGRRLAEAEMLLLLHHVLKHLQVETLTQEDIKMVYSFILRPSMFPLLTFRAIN
Nature of the test: Inhibition of cortisol secretion in NCI-H295R cells. Format: cell-based. The settings on record: human adrenocortical carcinoma NCI-H295R cells, 24 hours with cell stimulant.
Excerpt: as §1, §2, §3, §4, §5, §6, §7

Structures can show the parent of a compound that is named as a salt.

Take `N#Cc1cccc(C(=O)n2c(-c3cccnc3)cc3cc(C#N)ccc32)c1` [Example 42, 1-(3-Cyano-benzoyl)-2-pyridin-3-yl-1H-indole-5-carbonitrile]: the IC50 in test [1] is 30 nM; in test [2], 600 nM.

In the case of `CCc1c(-c2cncc(NS(=O)(=O)CC)c2)n(C)c2ccccc12` [Example 229, Ethanesulfonic acid [5-(1-methyl-3-ethyl-1H-indol-2-yl)-pyridin-3-yl]-amide], the values for the IC50 in test [1] and in test [2] were 5 nM and 125 nM, respectively.

In the case of `CCS(=O)(=O)N(C)c1cncc(-c2cc3ccccc3n2C)c1` [Example 231, Ethanesulfonic acid methyl-[5-(1-methyl-1H-indol-2-yl)-pyridin-3-yl]-amide], the IC50 was 2 nM in test [1] and 51 nM in test [2].

In the case of `CCNS(=O)(=O)c1cncc(-c2cc3ccccc3n2C)c1` [Example 242, N-ethyl-5-(1-methyl-1H-indol-2-yl)pyridine-3-sulfonamide], the IC50 in test [1] was 23 nM; in test [2], over 1000 nM.

`Cn1c(-c2cnccc2Cl)cc2ccccc21` [Example 107, 2-(4-Chloro-pyridin-3-yl)-1-methyl-1H-indole]: the results for the IC50 in test [1] and in test [2] were 9 nM and 220 nM, respectively.

As for `CC(C)S(=O)(=O)NCc1cncc(-c2c(C#N)c3ccc(Cl)cc3n2C)c1` [Example 186, Propane-2-sulfonic acid [5-(6-chloro-3-cyano-1-methyl-1H-indol-2-yl)-pyridin-3-ylmethyl]amide], the values for the IC50 in test [1] and in test [2] were 21 nM and 390 nM, respectively.

For the compound `CCS(=O)(=O)NCc1cncc(-c2cc3ccc(Cl)cc3n2C)c1` [Example 206, N-[5-(6-Chloro-1-methyl-1H-indol-2-yl)-pyridin-3-ylmethyl]-ethanesulfonamide], the IC50 is 2 nM in test [1] and 213 nM in test [2].

For `Cn1c(-c2cncc(CN3CCN(S(C)(=O)=O)CC3)c2)c(C#N)c2ccc(Cl)cc21` [Example 180, 6-Chloro-2-[5-(4-methanesulfonyl-piperazin-1-ylmethyl)-pyridin-3-yl]-1-methyl-1H-indole-3-carbonitrile], the IC50 amounted to 2 nM in test [1] and 3 nM in test [2].

Consider `Cc1c(-c2cccnc2)n(Cc2cccc(C#N)c2)c2cc(F)ccc12` [Example 15, 3-(6-Fluoro-3-methyl-2-pyridin-3-yl-1H-indol-1-ylmethyl)-benzonitrile hydrochloride], for which the IC50 was 27 nM in test [1] and 447 nM in test [2].

For the compound `COc1cncc(-c2cc3ccccc3n2C)c1` [Example 101, 2-(5-Methoxy-pyridin-3-yl)-1-methyl-1H-indole], the half-inhibitory concentration (IC50) stood at 2 nM in test [1] and 37 nM in test [2].

With `Cn1c(-c2cncc(OS(C)(=O)=O)c2)c(C#N)c2ccccc21` [Example 138, Methanesulfonic acid 5-(3-cyano-1-methyl-1H-indol-2-yl)-pyridin-3-yl ester], the figures for the 50% inhibitory concentration (IC50) in test [1] and in test [2] were 43 nM and 326 nM, respectively.

On to `Cn1c(-c2cnccc2CO)cc2ccccc21` [Example 106, [3-(1-Methyl-1H-indol-2-yl)-pyridin-4-yl]-methanol], for which the IC50 in test [1] was 85 nM; in test [2] it was 530 nM.

`Cc1c(-c2cccnc2)n(COC(=O)C(C)(C)C)c2ccc(Cl)cc12` [Example 65, 2,2-Dimethyl-propionic acid 5-chloro-3-methyl-2-pyridin-3-yl-indol-1-ylmethyl ester]: the 50% inhibitory concentration (IC50) in test [1] was 10 nM; in test [2], 240 nM.

`Cn1c(-c2cncc(CNS(=O)(=O)CC(F)(F)F)c2)cc2ccc(Cl)cc21` [Example 209, 2,2,2-Trifluoro-ethanesulfonic acid [5-(6-chloro-1-methyl-1H-indol-2-yl)-pyridin-3-ylmethyl]-amide]: the figures for the half-inhibitory concentration (IC50) in test [1] and in test [2] were 23 nM and 788 nM, respectively.

As to `CC(C)C(=O)C1(CNc2cncc(-c3cc4ccccc4n3C)c2)CCC1` [Example 214, 2-Methyl-1-(1-{[5-(1-methyl-1H-indol-2-yl)-pyridin-3-ylamino]-methyl}-cyclobutyl)-propan-1-one], the IC50 in test [1] was 56 nM; in test [2] it was 377 nM.

In the case of `CCS(=O)(=O)NCc1cncc(-c2c(C)c3ccccc3n2C)c1` [Example 237, N-((5-(1,3-Dimethyl-1H-indol-2-yl)pyridin-3-yl)methyl)ethanesulfonamide], the figures for the IC50 in test [1] and in test [2] were 5 nM and 1610 nM, respectively.

In the case of `CCS(=O)(=O)Nc1cncc(-c2c(C)c3ccccc3n2C)c1` [Example 236, Ethanesulfonic acid [5-(1,3-dimethyl-1H-indol-2-yl)-pyridin-3-yl)-amide], the IC50 in test [1] stood at 21 nM; in test [2], 1100 nM.

With `Cn1c(-c2cncc(Cl)c2)c(C#N)c2ccccc21` [Example 123, 2-(5-Chloro-pyridin-3-yl)-1-methyl-1H-indole-3-carbonitrile], the half-inhibitory concentration (IC50) in test [1] was 78 nM; in test [2], 650 nM.

Turning to `CCS(=O)(=O)Nc1cncc(-c2c(COC)c3ccc(Cl)cc3n2C)c1` [Example 238, Ethanesulfonic acid [5-(1-methyl-3-methoxymethyl-6-chloro-1H-indol-2-yl)-pyridin-3-yl)-amide], the IC50 in test [1] was 44 nM; in test [2], over 1000 nM.

Take `CCS(=O)(=O)Nc1cncc(-c2cc3ccccc3n2C)c1` [Example 226, Ethanesulfonic acid [5-(1-methyl-1H-indol-2-yl)-pyridin-3-yl]-amide]: the figures for the half-inhibitory concentration (IC50) in test [1] and in test [2] were 36 nM and 345 nM, respectively.

For the compound `Cc1c(-c2cccnc2)[nH]c2ccc(C#N)cc12` [Example 6, 3-Methyl-2-pyridin-3-yl-1H-indole-5-carbonitrile], the IC50 was found to be 1 nM in test [1] and 7 nM in test [2].

Regarding `COc1ccncc1-c1cc2cc(C#N)ccc2[nH]1` [Example 90, 2-(4-Methoxy-pyridin-3-yl)-1H-indole-5-carbonitrile], the IC50 in test [1] was determined as 40 nM; in test [2], 400 nM.

Consider `COCCOC(=O)NCc1cncc(-c2c(C#N)c3ccc(Cl)cc3n2C)c1` [Example 192], for which the figures for the concentration for half-maximal inhibition (IC50) in test [1] and in test [2] were 4 nM and 20 nM, respectively.
